Results reported in ChEMBL document CHEMBL3885861, “Open TG-GATES”.

Organism: Rattus norvegicus
Test: Open TG-GATES - Regimen: Daily Repeat
Type: toxicity, organism-based, Sprague-Dawley
Design: regimen Daily Repeat, gender Male, age 6 weeks
Conditions: in vivo, po, route gavage; for TP / gamma-GTP / ALP / ALT / AST / BUN / CRE / DBIL / GLC / IP / K / LDH / Na / PL / RALB / TBIL / TC / TG: tissue Plasma; for APTT / Bas / Eos / Fbg / Hb / Ht / Lym / MCH / MCHC / MCV / Mono / Neu / PT / Plat / RBC / Ret / WBC: tissue Blood; for KIDNEY_L / KIDNEY_R / KIDNEY_TOTAL: tissue Kidney; for LIVER: tissue Liver
[1] = 0 mg/kg, […], dose level Control, time 28 day
[2] = 45 mg/kg, 72 h, dose level Low, time 3 day
[3] = 45 mg/kg, […], dose level Low, time 7 day
[4] = 45 mg/kg, […], dose level Low, time 14 day
[5] = 45 mg/kg, […], dose level Low, time 28 day

In the case of `CC(CCc1ccccc1)NCC(O)c1ccc(O)c(C(N)=O)c1` (centres undefined) [LABETALOL], the TP [1] was 6.3 g/dL, the gamma-GTP [1] was 1 IU/L and the TERMINAL_BW [2] was 254.7 g. The APTT [2] was 16 s, the Bas [2] was 0% and the Eos [2] was 0.8%. The Fbg [2] was 279.4 mg/dL, the Hb [2] was 13.6 g/dL and the Ht [2] was 40.1%. The Lym [2] was 77%, the MCH [2] was 21.7 pg and the MCHC [2] was 33.9%. It also gave an MCV [2] of 64.1 fL, a Mono [2] of 3% and a Neu [2] of 18.6%. It also gave a PT [2] of 13 s, a Plat [2] of 116.6 x10_4/uL and an RBC [2] of 626.8 x10_4/ul. For the same compound, the Ret [2] was 6.8%, the WBC [2] was 105.9 x10_2/uL and the KIDNEY_L [2] was 1.1 g. The KIDNEY_R [2] was 1.1 g, the KIDNEY_TOTAL [2] was 2.2 g and the LIVER [2] was 11.6 g. It also gave an ALP [2] of 1517 IU/L, an ALT [2] of 42.4 IU/L and an AST [2] of 69.8 IU/L. For the same compound, the BUN [2] was 15 mg/dL, the CRE [2] was 0.2 mg/dL and the DBIL [2] was 0.014 mg/dL. The GLC [2] was 186.2 mg/dL, the IP [2] was 7.4 mg/dL and the K [2] was 4 meq/L. For the same compound, the LDH [2] was 64.2 IU/L, the Na [2] was 143.4 meq/L and the PL [2] was 160.8 mg/dL. It also gave an RALB [2] of 2.7 g/dL, a TBIL [2] of 0.026 mg/dL and a TC [2] of 87.6 mg/dL. The TG [2] was 116.6 mg/dL, the TP [2] was 5.9 g/dL and the gamma-GTP [2] was 1.2 IU/L. The TERMINAL_BW [3] was 288.7 g, the TERMINAL_BW [4] was 350.6 g and the TERMINAL_BW [5] was 411.6 g. For the same compound, the APTT [3] was 17.4 s, the Bas [3] was 0% and the Eos [3] was 1%. For the same compound, the Fbg [3] was 315.6 mg/dL, the Hb [3] was 14.1 g/dL and the Ht [3] was 40.9%. It also gave a Lym [3] of 73%, an MCH [3] of 21.4 pg and an MCHC [3] of 34.6%. For the same compound, the MCV [3] was 61.9 fL, the Mono [3] was 3.4% and the Neu [3] was 22.2%. The PT [3] was 12.8 s, the Plat [3] was 114.7 x10_4/uL and the RBC [3] was 661 x10_4/ul. It also gave a Ret [3] of 5.1%, a WBC [3] of 95.2 x10_2/uL and an APTT [4] of 17.7 s. The Bas [4] was 0%, the Eos [4] was 0.8% and the Fbg [4] was 291.6 mg/dL. For the same compound, the Hb [4] was 14.5 g/dL, the Ht [4] was 41.8% and the Lym [4] was 76.4%. It also gave an MCH [4] of 21.4 pg, an MCHC [4] of 34.7% and an MCV [4] of 61.5 fL. For the same compound, the Mono [4] was 2.8%, the Neu [4] was 19.6% and the PT [4] was 12.9 s. The Plat [4] was 104.8 x10_4/uL, the RBC [4] was 679.2 x10_4/ul and the Ret [4] was 4.4%. For the same compound, the WBC [4] was 86.7 x10_2/uL, the APTT [5] was 17.8 s and the Bas [5] was 0.4%. The Eos [5] was 1.4%, the Fbg [5] was 276.4 mg/dL and the Hb [5] was 15.5 g/dL. The Ht [5] was 44.6%, the Lym [5] was 75.6% and the MCH [5] was 19.7 pg. For the same compound, the MCHC [5] was 34.6%, the MCV [5] was 56.9 fL and the Mono [5] was 2.6%. The Neu [5] was 19.4%, the PT [5] was 13.1 s and the Plat [5] was 101.1 x10_4/uL. For the same compound, the RBC [5] was 785.2 x10_4/ul, the Ret [5] was 2.4% and the WBC [5] was 108 x10_2/uL. For the same compound, the KIDNEY_L [3] was 1.1 g, the KIDNEY_R [3] was 1.1 g and the KIDNEY_TOTAL [3] was 2.2 g. It also gave a KIDNEY_L [4] of 1.3 g, a KIDNEY_R [4] of 1.3 g and a KIDNEY_TOTAL [4] of 2.6 g. It also gave a KIDNEY_L [5] of 1.4 g, a KIDNEY_R [5] of 1.4 g and a KIDNEY_TOTAL [5] of 2.8 g. For the same compound, the LIVER [3] was 12.4 g, the LIVER [4] was 12.9 g and the LIVER [5] was 15.8 g. It also gave an ALP [3] of 1674.4 IU/L, an ALT [3] of 45 IU/L and an AST [3] of 71.4 IU/L. The BUN [3] was 15.4 mg/dL, the CRE [3] was 0.2 mg/dL and the DBIL [3] was 0.016 mg/dL. It also gave a GLC [3] of 192.2 mg/dL, a K [3] of 3.7 meq/L and an LDH [3] of 59.2 IU/L. It also gave a Na [3] of 143.2 meq/L, a PL [3] of 163.2 mg/dL and an RALB [3] of 2.7 g/dL. The TBIL [3] was 0.024 mg/dL, the TC [3] was 89.6 mg/dL and the TG [3] was 117.2 mg/dL. For the same compound, the TP [3] was 5.9 g/dL, the gamma-GTP [3] was 1.2 IU/L and the ALP [4] was 1374 IU/L. The ALT [4] was 46.4 IU/L, the AST [4] was 71.8 IU/L and the BUN [4] was 17 mg/dL. The CRE [4] was 0.2 mg/dL, the DBIL [4] was 0.014 mg/dL and the GLC [4] was 191.8 mg/dL. The IP [4] was 8 mg/dL, the K [4] was 3.8 meq/L and the LDH [4] was 57.2 IU/L. The Na [4] was 144.4 meq/L, the PL [4] was 155.4 mg/dL and the RALB [4] was 2.8 g/dL. The TBIL [4] was 0.028 mg/dL, the TC [4] was 76.8 mg/dL and the TG [4] was 131.2 mg/dL. The TP [4] was 6.1 g/dL, the gamma-GTP [4] was 1.2 IU/L and the ALP [5] was 1004.4 IU/L. For the same compound, the ALT [5] was 48.8 IU/L, the AST [5] was 70.4 IU/L and the BUN [5] was 16.6 mg/dL. For the same compound, the CRE [5] was 0.2 mg/dL, the DBIL [5] was 0.018 mg/dL and the GLC [5] was 179.2 mg/dL. The IP [5] was 6.8 mg/dL, the K [5] was 3.7 meq/L and the LDH [5] was 70.6 IU/L. It also gave a Na [5] of 143.2 meq/L, a PL [5] of 151.4 mg/dL and an RALB [5] of 2.9 g/dL. The TBIL [5] was 0.038 mg/dL, the TC [5] was 79.2 mg/dL and the TG [5] was 118.2 mg/dL.
